From publication PMC6201879, “N-substituted phenylbenzamides of the niclosamide chemotype attenuate obesity related changes in high fat diet fed mice” (PLoS ONE, 2018)
Where “and” joins values, the source holds several entries; their conditions need not be identical. Identical values can stand only once. Like-named read-outs stand apart in the source and are kept apart here.

Tests used:
[1] = tested on: fatty acid synthase (FAS); assay: Western blot of fatty acid synthase in liver of HFD-fed mice; conditions: HFD fed-DIO mice; 10mg/kg for 12 days; vs sham
[2] = tested on: carbonic anhydrase-III (CAIII); assay: Western blot of carbonic anhydrase III in liver of HFD-fed mice; conditions: HFD fed-DIO mice; 10mg/kg for 12 days; vs sham
[3] = tested on: Salmonella typhimurium (TA98, TA100, TA1535 and TA1537) and Escherichia coli (WP2 uvrA (pKM101)); assay: Ames assay, overall outcome and cytotoxicity across strains
[4] = Pharmacokinetic profile in Sprague Dawley rats (IV and PO); type: in vivo; conditions: Mean + SD (n = 3); for half-life / Cmax / bioavailability: Sprague Dawley; for half-life / Cmax / bioavailability / C0 / AUC(0-inf) / AUC(0-t) / clearance / MRT inf / Tmax: rat, plasma; for bioavailability: read-out: F (oral bioavailability); for clearance: read-out: Cl_obs
Procedure: To evaluate the pharmacokinetic profile by oral (PO) and intravenous (IV) administration routes we used 6 to 8-week old Sprague Dawley rats weighing approximately 200-330g (n = 3 per study group). Compounds were administered at 1mg/kg in 5% Cremophor EL and 20% PEG400 in water for IV and 5mg/kg in PBS for PO. All dose formulation was performed at room temperature. Animals were fasted overnight prior to dosing and were re-fed approximately 4 hours after dosing. For PO, 0.2ml of blood was collected pre- and 0.5, 1, 2, 4 8 12 and 24-hours after drug delivery and transferred to EDTA-K2 BD Vacutainer plastic blood collection tubes. IV samples were collected pre-injection and 0.08, 0.25, 0.5, 1, 2, 4, 8, 12, 24-hours post injection. Blood samples were centrifuged at 2,000 g for 5 minutes at 4°C to obtain plasma. Plasma samples were stored at -75±15°C prior to analysis and then thawed and analyzed by LC-MS/MS method and pharmacokinetic calculations were performed using WinNolin (Phoenix, version 6.4). For IV administration: T1/2, C0, AUClast, AUCinf, MRT, Cl, Vss, and number of points for regression were determined. For PO administration: T1/2, Cmax, Tmax, AUCinf, AUClast, F(0-∞) %, and number of points for regression were determined. Data are reported as mean and standard deviation.

p-AMPK Thr-172 = assay: Western blot of p-AMPK Thr-172 in liver of HFD-fed mice; conditions: HFD fed-DIO mice; 10mg/kg for 12 days; vs sham
[5] = iv, 1 mg/kg, IV 1 mg/kg, read-out: T 1/2 (IV) (converted)
[6] = po, 5 mg/kg, PO 5 mg/kg in PBS, read-out: T 1/2 (PO) (converted)
[7] = po, 5 mg/kg, PO 5 mg/kg vs IV 1 mg/kg
[8] = IV 1 mg/kg, read-out: AUC Inf (IV)
[9] = IV 1 mg/kg, read-out: AUC last (IV)
[10] = IV 1 mg/kg, read-out: MRT Inf_obs (IV)
[11] = PO 5 mg/kg in PBS, read-out: AUC Inf (PO)
[12] = PO 5 mg/kg in PBS, read-out: AUC last (PO)
[13] = PO 5 mg/kg in PBS, read-out: MRT Inf_obs (PO)

SMILES	AUC _%Extrap_obs (IV) ([4]; IV 1 mg/kg)	AUCl ast/D (IV) ([4]; IV 1 mg/kg)	V ss_obs ([4]; IV 1 mg/kg)	AUC _%Extrap_obs (PO) ([4]; PO 5 mg/kg in PBS)	AUC last / D (PO) ([4]; PO 5 mg/kg in PBS)	half-life [4, 5]	Cmax ([4]; po, 5 mg/kg, PO 5 mg/kg in PBS)	half-life [4, 6]	bioavailability [4, 7]	C0 ([4]; IV 1 mg/kg)	AUC(0-inf) [4, 8]	AUC(0-t) [4, 9]	clearance ([4]; IV 1 mg/kg)	MRT inf [4, 10]	Tmax ([4]; PO 5 mg/kg in PBS)	AUC(0-inf) [4, 11]	AUC(0-t) [4, 12]	MRT inf [4, 13]	other results
CC(C)(C)c1ccc(O)c(C(=O)Nc2ccc(C(=O)O)cc2Cl)c1 [Compound 500200, 4-[(5-tert-butyl-2-hydroxybenzene)amido]-3-chlorobenzoic acid]	0.13 +/- 0.016%	1940 ± 166 ng·kg·h/mL/mg	0.13 ± 0.020 L/kg	1.94 +/- 1.27%	43.3 ± 25.3 ng·kg·h/mL/mg	1.66 ± 0.48 h	50.8 ± 35.7 ng/mL	1.51 ± 0.4 h	2.26 ± 1.29%	13800 ± 2610 ng/mL	1940 ± 166 ng·h/mL	1940 ± 166 ng·h/mL	8.63 ± 0.78 mL/min/kg	0.26 ± 0.048 h	3.33 ± 1.15 h	220 ± 1250 ng·h/mL	216 ± 127 ng·h/mL	4.04 ± 0.68 h	FAS protein levels in liver [1]: reduced; CAIII protein levels in liver [2]: reduced; Ames assay outcome (mutagenicity) [3]: negative; cytotoxicity in the Ames assay ([3]; relative to the negative control, presence and absence of S9 mix): cytotoxicity was exhibited at the highest concentrations in both strains; phosphorylation of AMPK at Thr-172 in liver (p-AMPK Thr-172): stimulated phosphorylation of AMPK at Thr-172
CC(C)(C)c1ccc(O)c(C(=O)Nc2cc(C(=O)O)ccc2Cl)c1 [Compound 600494, 3-{[2-Hydroxy-5-(tert-butyl)benzene]amido}-4chloro-benzoic acid]	1.23 +/- 1.05%	18200 ± 1190 ng·kg·h/mL/mg	0.13 ± 0.035 L/kg	3.64 +/-4.73%	2490 ± 542 ng·kg·h/mL/mg	5.36 ± 2 h	1850 ± 674 ng/mL	5.3 h	14%	22900 ± 4300 ng/mL	18400 ± 1400 ng·h/mL	18200 ± 1190 ng·h/mL	0.91 ± 0.068 mL/min/kg	2.39 ± 0.69 h	5.33 ± 2.31 h	13000 ± 3520 ng·h/mL	12400 ± 2710 ng·h/mL	7.89 ± 1.49 h	T 1/2 (PO) ([4]; PO 5 mg/kg in PBS, 5 mg/kg): 4.6 h and 4.58 ± 2.61 h; F (oral bioavailability) ([4]; PO 5 mg/kg vs IV 1 mg/kg): 14.17 +/- 3.8%
